For 29 compounds, inhibition results are on record in patent US20080318977A1, “Condensed Pyridines as Kinase Inhibitors” (Palau Pharma, S.A., priority 2004, published 2008).

T1 sequence (Q16539 whole entry, the tested form may be a part): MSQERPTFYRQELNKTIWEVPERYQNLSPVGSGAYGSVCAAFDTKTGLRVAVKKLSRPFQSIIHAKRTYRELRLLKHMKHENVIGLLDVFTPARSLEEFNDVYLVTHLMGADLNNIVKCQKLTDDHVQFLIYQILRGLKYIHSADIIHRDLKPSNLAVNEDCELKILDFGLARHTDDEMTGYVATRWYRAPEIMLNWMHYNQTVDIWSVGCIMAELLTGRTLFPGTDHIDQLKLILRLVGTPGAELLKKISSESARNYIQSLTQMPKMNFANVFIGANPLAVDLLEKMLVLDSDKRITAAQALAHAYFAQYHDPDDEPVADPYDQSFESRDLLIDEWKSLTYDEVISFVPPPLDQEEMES

This experiment addresses T1, p38α (Homo sapiens, UniProt Q16539).
T1 construct: GST-tagged fusion protein corresponding to full-length human p38α; purchased Upstate 14-251; host or cells: E. coli
The experiment in a line: Inhibition of p38α enzyme activity (IMAP fluorescence polarisation kinase assay). In kind it is biochemical. Particulars: at 1 μM compound; ATP 20 μM; 2 h at RT. On the procedure:
Inhibition of p38α Enzyme Activity:
Compound stocks in 100% DMSO are first diluted in DMSO to a concentration of 1×10^−3 up to 3.2×10^−8 M and then further diluted in kinase assay buffer (10 mM Tris-HCl, pH 7.2, 10 mM MgCl2, 0.01% tween 20, 0.05% NaN3, 1 mM dithiothreitol) to a concentration range of 4×10^−5 up to 1.3×10^−9 M. Of each compound solution 5 μL is transferred into a 384-wells black Optiplate (Packard, 6007279), followed by the addition of 5 μL of ATP (Boehringer, 519987), 5 μL of Fluorescein-labeled EGFR (Epidermal Growth Factor Receptor) peptide substrate and 5 μL of active p38 cc kinase (GST-tagged fusion protein corresponding to full-length human p38α; expressed in E. coli by Upstate, 14-251), all diluted in kinase assay buffer (see final concentrations in Table 1). The mixture is incubated for 2 h at room temperature (RT). The reaction is stopped by the addition of 60 μL of IMAP binding reagent, which has been diluted 400-fold in IMAP binding buffer (stock concentration 5 times diluted in Milli Q). After incubation for 30 min at RT, FP is measured on an Analyst™ multimode fluorescence plate reader (Molecular Devices) at excitation wavelength of 485 nm and emission wavelength of 530 nm (1 sec/well).
Data handling is performed as follows: percentage effects are calculated based on no-p38-enzyme-addition as the maximum inhibitory effect and with p38 enzyme addition as the minimum inhibitory effect. In each experiment, individual compound concentrations are tested in duplicate and percentage effect is calculated for each concentration.
(In general: In fluorescence polarisation assays a small probe gives low polarisation when free and higher when bound to something large.)
Usually inhibition stands for how much of the control response was suppressed. In the case of `COCCNCc1cc2nc(-c3ccc(F)cc3)c(-c3ccncc3)c(-c3ccc(F)cc3)c2n1C` [Example 32, [5,7-Bis-(4-fluoro-phenyl)-1-methyl-6-pyridin-4-yl-1H-pyrrolo[3,2-b]pyridin-2-ylmethyl]-(2-methoxy-ethyl)-amine], the inhibition at 1 µM is > 50%.

`Cn1c(C(N)=O)cc2nc(-c3ccc(F)cc3)c(-c3ccncc3)c(-c3ccc(F)cc3)c21` [Example 12, 5,7-Bis(4-fluorophenyl)-1-methyl-6-(4-pyridyl)pyrrolo[3,2-b]pyridine-2-carboxamide]: the inhibition at 1 µM was > 50%. As to `COC(=O)c1cc2nc(-c3ccc(F)cc3)c(-c3ccncc3)c(-c3ccc(F)cc3)c2n1C` [Example 3, Methyl 5,7-bis(4-fluorophenyl)-1-methyl-6-(4-pyridyl)pyrrolo[3,2-b]pyridine-2-carboxylate], the inhibition at 1 µM was > 50%. Then `COCCNC(=O)c1cc2nc(-c3ccc(F)cc3)c(-c3ccncc3)c(-c3ccc(F)cc3)c2n1C` [Example 28, 5,7-Bis-(4-fluoro-phenyl)-1-methyl-6-pyridin-4-yl-1H-pyrrolo[3,2-b]pyridine-2-carboxylic acid (2-methoxy-ethyl)-amide], with > 50%; and `Cc1nsc2nc(-c3ccc(F)cc3)c(-c3ccnc(NCC4CC4)n3)cc12` [Example 43, Cyclopropylmethyl-{4-[6-(4-fluoro-phenyl)-3-methyl-isothiazolo[5,4-b]pyridin-5-yl]-pyrimidin-2-yl}-amine], with > 50%; and `OCc1cc2c(-c3ccc(F)cc3)c(-c3ccncc3)c(-c3ccc(F)cc3)nc2o1` [Example 22, [4,6-Bis(4-fluorophenyl)-5-(4-pyridyl)furo[2,3-b]pyridin-2-yl]methanol], with > 50%. Then `Cn1cnc2nc(-c3ccc(F)cc3)c(-c3ccncc3)c(-c3ccc(F)cc3)c21` [Example 10, 5,7-Bis(4-fluorophenyl)-1-methyl-6-(4-pyridyl)imidazo[4,5-b]pyridine], with > 50%; and `Cn1c(C(C)(C)O)nc2nc(-c3ccc(F)cc3)c(-c3ccncc3)c(-c3ccc(F)cc3)c21` [Example 18, 2-[5,7-Bis(4-fluorophenyl)-1-methyl-6-(4-pyridyl)imidazo[4,5-b]pyridin-2-yl]propan-2-ol], with > 50%. The value for `COc1ccc(-c2nc3cc[nH]c3cc2-c2ccnc(NCC3CC3)n2)cc1` [Example 46, Cyclopropylmethyl-{4-[5-(4-methoxy-phenyl)-1H-pyrrolo[3,2-b]pyridin-6-yl]-pyrimidin-2-yl}-amine] was > 50%; that for `O=C(NCCN1CCOCC1)c1cc2c(-c3ccc(F)cc3)c(-c3ccncc3)c(-c3ccc(F)cc3)nc2o1` [Example 25, 4,6-Bis-(4-fluoro-phenyl)-5-pyridin-4-yl-furo[2,3-b]pyridine-2-carboxylic acid (2-morpholin-4-yl-ethyl)-amide] was > 50%; that for `O=C(NCCN1CCCCC1)c1cc2c(-c3ccc(F)cc3)c(-c3ccncc3)c(-c3ccc(F)cc3)nc2o1` [Example 26, 4,6-Bis-(4-fluoro-phenyl)-5-pyridin-4-yl-furo[2,3-b]pyridine-2-carboxylic acid (2-piperidin-1-yl-ethyl)-amide] was > 50%.

For `CCCNC(=O)c1cc2nc(-c3ccc(F)cc3)c(-c3ccncc3)c(-c3ccc(F)cc3)c2n1C` [Example 29, 5,7-Bis-(4-fluoro-phenyl)-1-methyl-6-pyridin-4-yl-1H-pyrrolo[3,2-b]pyridine-2-carboxylic acid propylamide], the inhibition at 1 µM is > 50%. As for `Cc1nc2cc(-c3ccnc(NCC4CC4)n3)c(-c3ccc(F)cc3)nc2s1` [Example 52, Cyclopropylmethyl-{4-[5-(4-fluoro-phenyl)-2-methyl-thiazolo[5,4-b]pyridin-6-yl]-pyrimidin-2-yl}-amine], the inhibition at 1 µM is > 50%.

`CCN(CC(=O)OC)Cc1cc2nc(-c3ccc(F)cc3)c(-c3ccncc3)c(-c3ccc(F)cc3)c2n1C` [Example 35, {[5,7-Bis-(4-fluoro-phenyl)-1-methyl-6-pyridin-4-yl-1H-pyrrolo[3,2-b]pyridin-2-ylmethyl]-N-ethyl-amino}-acetic acid methyl ester]: the inhibition at 1 µM was > 50%. Then `O=C(NCCO)c1n[nH]c2c(-c3ccc(F)cc3)c(-c3ccncc3)c(-c3ccc(F)cc3)nc12` [Example 54, 5,7-Bis-(4-fluoro-phenyl)-6-pyridin-4-yl-1H-pyrazolo[4,3-b]pyridine-3-carboxylic acid (2-hydroxy-ethyl)-amide], with > 50%; and `Cn1c(CNCC2CC2)cc2nc(-c3ccc(F)cc3)c(-c3ccncc3)c(-c3ccc(F)cc3)c21` [Example 33, [5,7-Bis-(4-fluoro-phenyl)-1-methyl-6-pyridin-4-yl-1H-pyrrolo[3,2-b]pyridin-2-ylmethyl]-cyclopropylmethyl-amine], with > 50%; and `Cc1noc2nc(-c3ccc(F)cc3)c(-c3ccnc(N[C@@H](C)c4ccccc4)n3)cc12` [Example 42, (S)-{4-[6-(4-Fluoro-phenyl)-3-methyl-isoxazolo[5,4-b]pyridin-5-yl]-pyrimidin-2-yl}-(1-phenyl-ethyl)-amine], with > 50%. The value for `Cc1nsc2nc(-c3ccc(F)cc3)c(-c3ccnc(N[C@@H](C)c4ccccc4)n3)cc12` [Example 45, (S)-{4-[6-(4-Fluoro-phenyl)-3-methyl-isothiazolo[5,4-b]pyridin-5-yl]-pyrimidin-2-yl}-(1-phenyl-ethyl)-amine] was > 50%. The value for `Cn1c(CO)nc2nc(-c3ccc(F)cc3)c(-c3ccncc3)c(-c3ccc(F)cc3)c21` [Example 7, [5,7-Bis(4-fluorophenyl)-1-methyl-6-(4-pyridyl)imidazo[4,5-b]pyridin-2-yl]methanol] was > 50%; that for `Cn1c(C(=O)N2CCOCC2)cc2nc(-c3ccc(F)cc3)c(-c3ccncc3)c(-c3ccc(F)cc3)c21` [Example 14, [5,7-Bis(4-fluorophenyl)-1-methyl-6-(4-pyridyl)pyrrolo[3,2-b]pyridin-2-yl]morpholin-4-ylmethanone] was > 50%; that for `Cn1c(C(=O)NCCO)cc2nc(-c3ccc(F)cc3)c(-c3ccncc3)c(-c3ccc(F)cc3)c21` [Example 13, 5,7-Bis(4-fluorophenyl)-N-(2-hydroxyethyl)-1-methyl-6-(4-pyridyl)pyrrolo[3,2-b]pyridine-2-carboxamide] was > 50%. In the case of `COCCCNc1nccc(-c2cc3c(C)nsc3nc2-c2ccc(F)cc2)n1` [Example 44, {4-[6-(4-Fluoro-phenyl)-3-methyl-isothiazolo[5,4-b]pyridin-5-yl]-pyrimidin-2-yl}-(3-methoxy-propyl)-amine], the inhibition at 1 µM is > 50%.

With `COC(=O)c1n[nH]c2c(-c3ccc(F)cc3)c(-c3ccncc3)c(-c3ccc(F)cc3)nc12` [Example 39, 5,7-Bis-(4-fluoro-phenyl)-6-pyridin-4-yl-1H-pyrazolo[4,3-b]pyridine-3-carboxylic acid methyl ester], the inhibition at 1 µM is > 50%. Then `Cn1c(C(=O)NCCN2CCCCC2)cc2nc(-c3ccc(F)cc3)c(-c3ccncc3)c(-c3ccc(F)cc3)c21` [Example 31, 5,7-Bis-(4-fluoro-phenyl)-1-methyl-6-pyridin-4-yl-1H-pyrrolo[3,2-b]pyridine-2-carboxylic acid (2-piperidin-1-yl-ethyl)-amide], with > 50%; and `COCCCNc1nccc(-c2cc3c(C)noc3nc2-c2ccc(F)cc2)n1` [Example 41, {4-[6-(4-Fluoro-phenyl)-3-methyl-isoxazolo[5,4-b]pyridin-5-yl]-pyrimidin-2-yl}-(3-methoxy-propyl)-amine], with > 50%.

On to `Cc1noc2nc(-c3ccc(F)cc3)c(-c3ccnc(NCC4CC4)n3)cc12` [Example 40, Cyclopropylmethyl-{4-[6-(4-fluoro-phenyl)-3-methyl-isoxazolo[5,4-b]pyridin-5-yl]-pyrimidin-2-yl}-amine], for which the inhibition at 1 µM is > 50%. The value for `Cn1c(C(=O)NCCN2CCOCC2)cc2nc(-c3ccc(F)cc3)c(-c3ccncc3)c(-c3ccc(F)cc3)c21` [Example 30, 5,7-Bis-(4-fluoro-phenyl)-1-methyl-6-pyridin-4-yl-1H-pyrrolo[3,2-b]pyridine-2-carboxylic acid (2-morpholin-4-yl-ethyl)-amide] was > 50%; that for `COC(=O)CNCc1cc2nc(-c3ccc(F)cc3)c(-c3ccncc3)c(-c3ccc(F)cc3)c2n1C` [Example 34, {[5,7-Bis-(4-fluoro-phenyl)-1-methyl-6-pyridin-4-yl-1H-pyrrolo[3,2-b]pyridin-2-ylmethyl]-amino}-acetic acid methyl ester] was > 50%; that for `COc1ccc(-c2nc3cc[nH]c3cc2-c2ccnc(N[C@@H](C)c3ccccc3)n2)cc1` [Example 47, (S)-{4-[5-(4-Methoxy-phenyl)-1H-pyrrolo[3,2-b]pyridin-6-yl]-pyrimidin-2-yl}-(1-phenyl-ethyl)-amine] was > 50%.
